Literature values, collected in paper PMC9103764, “Pilot Study on Acute Effects of Pharmacological Intraperitoneal L-Homoarginine on Homeostasis of Lysine and Other Amino Acids in a Rat Model of Isoprenaline-Induced Takotsubo Cardiomyopathy” (International Journal of Molecular Sciences, 2022).

System: serotonin receptor 4
Conditions: cited from earlier work

NCCCC[C@H](N)C(=O)O [Lys, L-lysine]
action at serotonin receptor 4: partial serotonin receptor 4 antagonist
